Results on 38 compounds are retold here after ChEMBL document CHEMBL1857833, “Screening and optimization of specific chemical series against human African Trypanosomiasis (HAT)”.

Converted amounts (≈) assume the structure as drawn. Where only a bound is given, the exact number is not on record here.

A short description of data set [1]: DNDI: Cytotoxicity against L929 mouse fibroblasts, 72 hour. In kind it is toxicity, cell-based. To be noted: mouse, L929 mouse fibroblasts.
A further data set deals with Trypanosoma brucei. As to the kind of experiment: DNDI: Inhibition of Human African Trypanosomiasis, SBRI 427, in vitro. In kind it is functional, organism-based. To be noted: Trypanosoma brucei, SBRI 427; read-out: IC50.

`O/N=C(\NC1CCCCC1)c1cccnc1Oc1cc(Cl)ccc1Cl` showed an IC50 at 72 h in data set [1] above 10 µg/mL. Also, the IC50 in the data set with Trypanosoma brucei was determined as 0.57 µg/mL (≈ 1.5 µM).

For `CCC(C)C(NCc1ccc(OC)c(OC)c1)c1nc(-c2ccccc2)c(N2CCCCC2)o1` (stereo not given), the IC50 at 72 h in data set [1] was above 10 µg/mL. For the same compound, the IC50 in the data set on Trypanosoma brucei was above 5 µg/mL.

Turning to `CCCCCCCCCCOc1ccc(-c2nc(CNC(C)CCCCC)co2)cc1` (stereo not given), it took 2.9 µg/mL (≈ 6.77 µM) to reach half-maximal inhibition in data set [1] (IC50 at 72 h). Moreover, in the data set on Trypanosoma brucei, the 50% inhibitory concentration (IC50) was 1.35 µg/mL (≈ 3.15 µM).

The compound `CCCCCNCc1coc(-c2ccc(CCCC)cc2)n1` displayed an IC50 at 72 h in data set [1] of 1.64 µg/mL (≈ 5.46 µM). Moreover, in the data set on Trypanosoma brucei, the IC50 worked out at 0.51 µg/mL (≈ 1.7 µM).

In data set [1], `CCCCc1ccc(-c2nc(CNC3CCCC3)co2)cc1` yielded an IC50 at 72 h of 2.52 µg/mL (≈ 8.44 µM). The IC50 in the data set on Trypanosoma brucei stood at 0.83 µg/mL (≈ 2.78 µM).

`CCCCc1ccc(-c2nc(CNC(C)CCC)co2)cc1` (stereo not given) came in with an IC50 at 72 h in data set [1] of 2.03 µg/mL (≈ 6.76 µM). Further, the IC50 with Trypanosoma brucei turned out to be 0.61 µg/mL (≈ 2.03 µM).

For the compound `CCCCc1ccc(-c2nc(CNC3CC3)co2)cc1`, in data set [1], the IC50 at 72 h was found to be 7.55 µg/mL (≈ 27.9 µM). Also, the IC50 with Trypanosoma brucei turned out to be 3.05 µg/mL (≈ 11.3 µM).

Take `Cc1ccc(CNC(c2ccccc2)c2nc(-c3ccccc3)c(N3CCCCC3)o2)cc1` (stereo not given): the IC50 at 72 h in data set [1] is above 10 µg/mL. Also, in the data set on Trypanosoma brucei, the IC50 is above 5 µg/mL.

`CCc1cccc(N/C(=N\O)c2ccc(C)nc2Oc2cc(Cl)ccc2Cl)c1` gave an IC50 at 72 h in data set [1] of 4.7 µg/mL (≈ 11.3 µM). Further, in the data set on Trypanosoma brucei, the IC50 amounted to 3.96 µg/mL (≈ 9.51 µM).

As to `C[C@H]1C(NCc2coc(-c3cccs3)n2)C[C@@H]2C[C@H]1C2(C)C` (stereo not given in full), the half-inhibitory concentration (IC50) in the data set with Trypanosoma brucei is 2.27 µg/mL (≈ 7.17 µM).

For the compound `O/N=C(\NCC1CCCCC1)c1cccnc1Oc1ccc(-n2cncn2)cc1`, in the data set on Trypanosoma brucei, the half-maximal inhibitory concentration (IC50) came to 0.59 µg/mL (≈ 1.5 µM).

In data set [1], `Cc1ccc(Oc2ccccc2/C(=N/O)NC2CCCCC2)cc1` returned an IC50 at 72 h of 4.06 µg/mL (≈ 12.5 µM). The half-maximal inhibitory concentration (IC50) in the data set on Trypanosoma brucei was determined as 0.27 µg/mL (≈ 0.832 µM).

In data set [1], `CCCCc1ccc(-c2nc(C(=O)OCC)co2)cc1` registered an IC50 at 72 h above 10 µg/mL. Also, the IC50 in the data set on Trypanosoma brucei was above 5 µg/mL.

In turn, `CCCCCCCCOC(=O)Cc1coc(-c2ccc(CCCC)cc2)n1` returned an IC50 at 72 h in data set [1] above 10 µg/mL. Moreover, the IC50 with Trypanosoma brucei was above 5 µg/mL.

In data set [1], `CCCCc1ccc(-c2nc(CNC(C)c3ccccc3)co2)cc1` (stereo not given) displayed an IC50 at 72 h of 3.33 µg/mL (≈ 9.96 µM). Further, the IC50 in the data set with Trypanosoma brucei was determined as 0.87 µg/mL (≈ 2.6 µM).

On to `CCCCc1ccc(-c2nc(C)c(C(=O)OC)o2)cc1`, for which the IC50 at 72 h in data set [1] was above 10 µg/mL. Besides, the IC50 with Trypanosoma brucei was above 5 µg/mL.

On to `COc1ccc(S(=O)(=O)NC2CCCCC2)cc1`, for which the half-maximal inhibitory concentration (IC50) at 72 h in data set [1] is above 10 µg/mL. In the data set with Trypanosoma brucei, the IC50 is above 5 µg/mL.

Consider `COc1ccc(S(=O)(=O)NC2CCCCC2)cc1OC`, for which the concentration for half-maximal inhibition (IC50) at 72 h in data set [1] was above 10 µg/mL. In the data set with Trypanosoma brucei, the IC50 was above 5 µg/mL.

With `CCCCc1ccc(-c2nc(CNCCc3ccccc3)co2)cc1`, the midpoint of inhibition in data set [1], the IC50 at 72 h, lay at 2.3 µg/mL (≈ 6.88 µM). The IC50 in the data set with Trypanosoma brucei is 0.69 µg/mL (≈ 2.06 µM).

In data set [1], `CCC(C)C(NCc1ccc(C)cc1)c1nc(-c2ccccc2)c(N2CCCCC2)o1` (stereo not given) gave an IC50 at 72 h above 10 µg/mL. The concentration for half-maximal inhibition (IC50) in the data set with Trypanosoma brucei was above 5 µg/mL.

On to `CCCCc1ccc(-c2nc(C)c(C(C)=O)o2)cc1`, for which the IC50 at 72 h in data set [1] is above 10 µg/mL. The IC50 with Trypanosoma brucei was above 5 µg/mL.

`C[C@@H]1[C@H]2C[C@@H](C[C@H]1NCc1coc(-c3ccc(OC4CCCCC4)cc3)n1)C2(C)C` had a concentration for half-maximal inhibition (IC50) at 72 h in data set [1] of 1.59 µg/mL (≈ 3.89 µM). In addition, the IC50 in the data set on Trypanosoma brucei turned out to be 0.57 µg/mL (≈ 1.4 µM).

As to `CCC(C)C(NCC(C)C)c1nc(Cc2ccccc2)c(N2CCCCC2)o1` (stereo not given), the 50% inhibitory concentration (IC50) at 72 h in data set [1] is above 10 µg/mL. In addition, the IC50 in the data set with Trypanosoma brucei was above 5 µg/mL.

Turning to `CCCCc1ccc(-c2nc(CN[C@H](C)c3ccccc3)co2)cc1`, the IC50 at 72 h in data set [1] was found to be 3.32 µg/mL (≈ 9.93 µM). In addition, in the data set on Trypanosoma brucei, the IC50 worked out at 2.98 µg/mL (≈ 8.91 µM).

For the compound `CCOc1ccccc1-c1nc(CNC(C)C(C)(C)C)co1` (stereo not given), the half-inhibitory concentration (IC50) with Trypanosoma brucei is 2.12 µg/mL (≈ 7.01 µM).

As for `CCCCc1ccc(-c2nc(CNCc3ccccc3)co2)cc1`, half-maximal inhibition in data set [1] (IC50 at 72 h) required 3.29 µg/mL (≈ 10.3 µM). In addition, in the data set on Trypanosoma brucei, the IC50 worked out at 1.32 µg/mL (≈ 4.12 µM).

Turning to `CCCCc1ccc(-c2nc(-c3ccccc3)c(-c3ccccc3)o2)cc1`, the IC50 at 72 h in data set [1] is above 10 µg/mL. Also, the IC50 with Trypanosoma brucei was above 5 µg/mL.

For `CCCCc1ccc(-c2nc(-c3ccccc3)c(C)o2)cc1`, in data set [1], the IC50 at 72 h was above 10 µg/mL. Also, the IC50 in the data set on Trypanosoma brucei is above 5 µg/mL.

On to `COc1ccccc1Oc1ncccc1/C(N)=N\O`, for which the IC50 at 72 h in data set [1] is above 10 µg/mL. Further, in the data set with Trypanosoma brucei, the IC50 was above 5 µg/mL.

Regarding `O/N=C(\Nc1cccc(F)c1)c1cccnc1Oc1cc(Cl)ccc1Cl`, in data set [1], the IC50 at 72 h came out at 7.69 µg/mL (≈ 19.6 µM). Moreover, the IC50 with Trypanosoma brucei was above 5 µg/mL.

In data set [1], `CCCCc1ccc(-c2nc(CNCc3ccc(C)cc3)co2)cc1` returned an IC50 at 72 h of 2.63 µg/mL (≈ 7.86 µM). In addition, the IC50 with Trypanosoma brucei came out at 3.05 µg/mL (≈ 9.12 µM).

Compound `CCCCc1ccc(-c2nc(-c3ccc(OC)cc3)co2)cc1` displayed an IC50 at 72 h in data set [1] above 10 µg/mL. In addition, the 50% inhibitory concentration (IC50) with Trypanosoma brucei is above 5 µg/mL.

As for `CCCCc1ccc(-c2nc(-c3ccc4ccccc4c3)co2)cc1`, the IC50 at 72 h in data set [1] was above 10 µg/mL. For the same compound, the IC50 in the data set on Trypanosoma brucei is above 5 µg/mL.

Turning to `O/N=C(/c1cccnc1Oc1ccc(F)cc1Cl)N1CCCc2ccccc21`, in the data set on Trypanosoma brucei, the concentration for half-maximal inhibition (IC50) is 0.54 µg/mL (≈ 1.36 µM).

`CCCCc1ccc(-c2nc(CNCc3ccc(Cl)cc3)co2)cc1`: in data set [1], 7.38 µg/mL (≈ 20.8 µM) corresponded to half-maximal inhibition (IC50 at 72 h). In addition, in the data set with Trypanosoma brucei, the IC50 was above 5 µg/mL.

`COc1ccc(/C(=N/O)Nc2cccc(C(C)(C)C)c2)cc1` returned a concentration for half-maximal inhibition (IC50) at 72 h in data set [1] of 3.91 µg/mL (≈ 13.1 µM).

For the compound `CCC(C)C(NCc1ccccc1OC)c1nc(Cc2ccccc2)c(N2CCCCC2)o1` (stereo not given), the IC50 at 72 h in data set [1] is above 10 µg/mL. For the same compound, the IC50 in the data set on Trypanosoma brucei is above 5 µg/mL.

As for `CCOc1ccccc1-c1nc(CNC(C)C2CCCCC2)co1` (stereo not given), the IC50 in the data set with Trypanosoma brucei turned out to be 1.94 µg/mL (≈ 5.91 µM).
